According to ChEMBL document CHEMBL4145553, “Design, synthesis, and biological evaluation of novel amide and hydrazide based thioether analogs targeting Histone deacteylase (HDAC) enzymes” (Eur J Med Chem, 2018):

How the values were obtained:
[1] = test system: RPMI-8226; experiment: Growth inhibition of human RPMI8226 cells assessed as cell growth at 10^-5 M incubated for 48 hrs by sulforhodamine B assay relative to control; type: functional; details: RPMI-8226, 48 h, read-out: Activity
[2] = test system: SF-268; experiment: Growth inhibition of human SF268 cells incubated for 48 hrs by sulforhodamine B assay; type: functional; details: SF-268, 48 h
[3] = test system: SNB-19; experiment: Growth inhibition of human SNB19 cells incubated for 48 hrs by sulforhodamine B assay; type: functional; details: SNB-19, 48 h
[4] = test system: HL-60(TB); experiment: Growth inhibition of human HL-60(TB) cells at 10 uM incubated for 48 hrs by sulforhodamine B assay relative to control; type: functional; details: HL-60, 48 h, values are per cent of control
[5] = test system: HOP-92; experiment: Growth inhibition of human HOP92 cells at 10 uM incubated for 48 hrs by sulforhodamine B assay relative to control; type: functional; details: HOP-92, 48 h, values are per cent of control
[6] = test system: NCI-H226; experiment: Growth inhibition of human NCI-H226 cells at 10 uM incubated for 48 hrs by sulforhodamine B assay relative to control; type: functional; details: NCI-H226, 48 h, values are per cent of control
[7] = test system: NCI-H322M; experiment: Growth inhibition of human NCI-H322M cells at 10 uM incubated for 48 hrs by sulforhodamine B assay relative to control; type: functional; details: values are per cent of control
[8] = test system: TK-10; experiment: Growth inhibition of human TK10 cells at 10 uM incubated for 48 hrs by sulforhodamine B assay relative to control; type: functional; details: TK-10, 48 h, values are per cent of control
[9] = test system: ACHN; experiment: Growth inhibition of human ACHN cells at 10 uM incubated for 48 hrs by sulforhodamine B assay relative to control; type: functional; details: values are per cent of control
[10] = test system: SK-OV-3; experiment: Growth inhibition of human SKOV3 cells at 10 uM incubated for 48 hrs by sulforhodamine B assay relative to control; type: functional; details: SK-OV-3, 48 h, values are per cent of control
[11] = test system: DU-145; experiment: Growth inhibition of human DU145 cells at 10 uM incubated for 48 hrs by sulforhodamine B assay relative to control; type: functional; details: DU-145, 48 h, values are per cent of control
[12] = test system: MCF7; experiment: Growth inhibition of human MCF7 cells at 10 uM incubated for 48 hrs by sulforhodamine B assay relative to control; type: functional; details: MCF7, 48 h, values are per cent of control
[13] = test system: MDA-MB-231; experiment: Growth inhibition of human MDA-MB-231 cells at 10 uM incubated for 48 hrs by sulforhodamine B assay relative to control; type: functional; details: MDA-MB-231, 48 h, values are per cent of control
[14] = test system: T47D; experiment: Growth inhibition of human T47D cells at 10 uM incubated for 48 hrs by sulforhodamine B assay relative to control; type: functional; details: values are per cent of control
[15] = test system: MDA-MB-435; experiment: Cell cycle arrest in human MDA-MB-435 cells assessed as accumulation at S-phase by propidium iodide staining based flow cytometry (reference value: 26.46%); type: functional
[16] = test system: M14; experiment: Growth of human M14 cells at 10 uM incubated for 48 hrs by sulforhodamine B assay relative to control; details: M14, 48 h
[17] = test system: U-251; experiment: Growth of human U251 cells at 10 uM incubated for 48 hrs by sulforhodamine B assay relative to control; details: U-251, 48 h
[18] = test system: K562; experiment: Growth of human K562 cells at 10 uM incubated for 48 hrs by sulforhodamine B assay relative to control; details: K562, 48 h
[19] = test system: SF-539; experiment: Growth of human SF539 cells at 10 uM incubated for 48 hrs by sulforhodamine B assay relative to control; details: SF-539, 48 h
[20] = test system: SF-268; experiment: Growth of human SF268 cells at 10 uM incubated for 48 hrs by sulforhodamine B assay relative to control; details: SF-268, 48 h
[21] = test system: HOP-62; experiment: Growth of human HOP62 cells at 10 uM incubated for 48 hrs by sulforhodamine B assay relative to control; details: HOP-62, 48 h
[22] = test system: OVCAR-5; experiment: Growth of human OVCAR5 cells at 10 uM incubated for 48 hrs by sulforhodamine B assay relative to control; details: OVCAR-5, 48 h
[23] = test system: OVCAR-4; experiment: Growth of human OVCAR4 cells at 10 uM incubated for 48 hrs by sulforhodamine B assay relative to control; details: OVCAR-4, 48 h
[24] = test system: IGROV-1; experiment: Growth of human IGROV1 cells at 10 uM incubated for 48 hrs by sulforhodamine B assay relative to control; details: IGROV-1, 48 h
[25] = test system: UACC-62; experiment: Growth of human UACC62 cells at 10 uM incubated for 48 hrs by sulforhodamine B assay relative to control; details: UACC-62, 48 h
[26] = test system: HCT-116; experiment: Growth of human HCT116 cells at 10 uM incubated for 48 hrs by sulforhodamine B assay relative to control; details: HCT-116, 48 h
[27] = test system: UACC-257; experiment: Growth of human UACC257 cells at 10 uM incubated for 48 hrs by sulforhodamine B assay relative to control; details: UACC-257, 48 h
[28] = test system: SK-MEL-5; experiment: Growth of human SK-MEL-5 cells at 10 uM incubated for 48 hrs by sulforhodamine B assay relative to control; details: SK-MEL-5, 48 h
[29] = test system: Malme-3M; experiment: Growth of human MALME-3M cells at 10 uM incubated for 48 hrs by sulforhodamine B assay relative to control
[30] = test system: CCRF-CEM; experiment: Growth of human CCRF-CEM cells at 10 uM incubated for 48 hrs by sulforhodamine B assay relative to control
[31] = test system: A549; experiment: Growth of human A549/ATCC cells at 10 uM incubated for 48 hrs by sulforhodamine B assay relative to control; details: A549, 48 h
[32] = read-out: LC50 (the source's name)
[33] = read-out: pLC50 (the source's name) (converted)

For CCS/C(Nc1ccccc1)=C(\C#N)C(=O)N/N=C\c1ccc(Cl)cc1Cl, the growth at 10 µM [1] was 18%, the GI50 ([2]; read-out: GI50) was 6.58 µM and the CC50 [2, 32] was greater than 100 µM. The TGI ([2]; read-out: TGI) was greater than 100 µM, the GI50 ([2]; read-out: pGI50 (converted)) was 6.61 µM and the CC50 [2, 33] was greater than 100 µM. The TGI ([2]; read-out: pTGI) was greater than 100 µM, the GI50 ([3]; read-out: GI50) was 4.17 µM and the CC50 [3, 32] was greater than 100 µM. It also gave a TGI ([3]; read-out: TGI) greater than 100 µM, a GI50 ([3]; read-out: pGI50 (converted)) of 4.17 µM and a CC50 [3, 33] greater than 100 µM. It also gave a TGI ([3]; read-out: pTGI) greater than 100 µM, a growth, % of control at 10 µM [4] of -31.4% and a growth, % of control at 10 µM [5] of 29.2%. The growth, % of control at 10 µM [6] was 37.7%, the growth, % of control at 10 µM [7] was 70.9% and the growth, % of control at 10 µM [8] was 56.7%. For the same molecule, the growth, % of control at 10 µM [9] was 38.2%, the growth, % of control at 10 µM [10] was 15.5% and the growth, % of control at 10 µM [11] was 20%. For the same molecule, the growth, % of control at 10 µM [12] was 19.3%, the growth, % of control at 10 µM [13] was 39% and the growth, % of control at 10 µM [14] was 17.8%. It also gave an Activity [15] of 19.16%, a growth, % of control at 10 µM [16] of 21% and a growth, % of control at 10 µM [17] of 19.1%. For the same molecule, the growth, % of control at 10 µM [18] was 7.35%, the growth, % of control at 10 µM [19] was 4.25% and the growth, % of control at 10 µM [20] was 34%. It also gave a growth, % of control at 10 µM [21] of 36.7%, a growth, % of control at 10 µM [22] of 72.5% and a growth, % of control at 10 µM [23] of 56.5%. For the same molecule, the growth, % of control at 10 µM [24] was 49.1%, the growth, % of control at 10 µM [25] was 26.6% and the growth, % of control at 10 µM [26] was 17.5%. The growth, % of control at 10 µM [27] was 51.9%, the growth, % of control at 10 µM [28] was 12.4% and the growth, % of control at 10 µM [29] was 38.1%. For the same molecule, the growth, % of control at 10 µM [30] was 9.86% and the growth, % of control at 10 µM [31] was 38.3%.

Molecule CCS/C(Nc1ccccc1)=C(\C#N)C(=O)Nc1ccc(OC)cc1 has a growth at 10 µM [1] of 6%, a GI50 ([2]; read-out: GI50) of 6.8 µM and a CC50 [2, 32] greater than 100 µM. It also gave a TGI ([2]; read-out: TGI) greater than 100 µM, a GI50 ([2]; read-out: pGI50 (converted)) of 6.76 µM and a CC50 [2, 33] greater than 100 µM. It also gave a TGI ([2]; read-out: pTGI) greater than 100 µM, a GI50 ([3]; read-out: GI50) of 3.55 µM and a CC50 [3, 32] greater than 100 µM. The TGI ([3]; read-out: TGI) was greater than 100 µM, the GI50 ([3]; read-out: pGI50 (converted)) was 3.55 µM and the CC50 [3, 33] was greater than 100 µM. The TGI ([3]; read-out: pTGI) was greater than 100 µM, the growth, % of control at 10 µM [4] was -15.6% and the growth, % of control at 10 µM [5] was 44.5%. The growth, % of control at 10 µM [6] was 57.9%, the growth, % of control at 10 µM [7] was 51.6% and the growth, % of control at 10 µM [8] was 47.6%. The growth, % of control at 10 µM [9] was 51.9%, the growth, % of control at 10 µM [10] was 22.4% and the growth, % of control at 10 µM [11] was 33.8%. It also gave a growth, % of control at 10 µM [12] of 19%, a growth, % of control at 10 µM [13] of 44.5% and a growth, % of control at 10 µM [14] of 25.4%. It also gave an Activity [15] of 19.26%, a growth, % of control at 10 µM [16] of 15.2% and a growth, % of control at 10 µM [17] of 16.6%. For the same molecule, the growth, % of control at 10 µM [18] was 7.34%, the growth, % of control at 10 µM [19] was 29.1% and the growth, % of control at 10 µM [20] was 39.1%. The growth, % of control at 10 µM [21] was 34.2%, the growth, % of control at 10 µM [22] was 63.1% and the growth, % of control at 10 µM [23] was 66.7%. It also gave a growth, % of control at 10 µM [24] of 55.7%, a growth, % of control at 10 µM [25] of 27.2% and a growth, % of control at 10 µM [26] of 14.3%. The growth, % of control at 10 µM [27] was 58.4%, the growth, % of control at 10 µM [28] was 17.8% and the growth, % of control at 10 µM [29] was 55.5%. It also gave a growth, % of control at 10 µM [30] of 8.29% and a growth, % of control at 10 µM [31] of 34.6%.
